Assay results from US12729377B2, “RNAi agents and compositions for inhibiting expression of angiopoietin-like 3 (ANGPTL3), and methods of use” (Arrowhead Pharmaceuticals, Inc., priority 2017, dated 2026).
In the oligonucleotide strings, read from the 5' end, every base follows the letter of its sugar. An asterisk marks phosphorothioate; unmarked linkages are phosphodiester. Other units and linkages are bracketed, terminal groups are in braces. A string of capitals states the bases alone. {NAG37} = tridentate N-acetyl-galactosamine targeting ligand, structure (NAG37)s; [invAb] = inverted abasic unit; m = 2'-O-methyl; f = 2'-fluoro

Test system: ANGPTL3 gene
Test: Example 6: serum LDL in mice
Format: in vivo, C57bl/6 mice
Description: To assess the in vivo activity of additional ANGPTL3 RNAi agents that are designed to target position 304 on the ANGPTL3 gene, six- to eight-week-old female C57bl/6 mice were used. Pre-dose serum samples were taken at day −1 after a four hour fast. At day 1, each mouse was given a single subcutaneous administration of 200 μl containing 0.5 mg/kg (mpk) of an ANGPTL3 RNAi agent in D5W (dextrose in 5% water), or control (D5W) with no RNAi agent, according to the dosing groups recited in Table 25.
Each of the RNAi agents included a modified sequence and an N-acetyl-galactosamine-containing targeting ligand conjugated to the 5′ terminal end of the sense strand. (See Tables 3, 4, and 5 for modified sequences and targeting ligand structures). The injections were performed between the skin and muscle (i.e. subcutaneous injections) into the loose skin over the neck and shoulder area. Three (3) mice in each group were tested (n=3). Serum was collected on days 8, 15, 22, 30, and on day 43 for certain groups (i.e., Groups 1, 2, 5, and 10 only). Mice were fasted for four hours prior to each collection. ANGPTL3 protein levels in serum were measured by ELISA assay (R&D Systems), according to the manufacturer's recommendations. Triglycerides, total cholesterol, high-density lipoprotein (HDL), and low-density lipoprotein (LDL) in serum were measured on a Cobas® Integra 400 (Roche Diagnostics), according to the manufacturer's recommendations.
The ANGPTL3 protein levels, triglyceride levels, total cholesterol levels, HDL levels, and LDL levels for each animal were normalized. For normalization, the level of ANGPTL3 protein, triglyceride, HDL, and total cholesterol, respectively, for each animal at a time point, was divided by the pre-treatment level of expression in that animal (in this case at day −1) to determine the ratio of expression “normalized to pre-treatment.” Expression at a specific time point was then normalized to the D5W control group by dividing the “normalized to pre-treatment” ratio for an individual animal by the mean “normalized to pretreatment” ratio of all mice in the D5W control group.

AD05488: RNAi agent duplex: antisense AM07235-AS, sense AM07234-SS (antisense mU*fA*mC*fUmGfAmUfCmAfAmAfUmAfUmGfUmUfGmAfG*mC; sense {NAG37}*[invAb]*mGmCmUmCmAmAmCmAfUfAfUmUmUmGmAmUmCmAmGmUmA*[invAb])
Avg LDL, normalized to pre-treatment and control (Day 8, 0.5 mg/kg single SC injection on day 1, n=3): 0.805 | Avg LDL, normalized to pre-treatment and control (Day 15, 0.5 mg/kg single SC injection on day 1, n=3): 0.880 | Avg LDL, normalized to pre-treatment and control (Day 22, 0.5 mg/kg single SC injection on day 1, n=3): 0.991 | Avg LDL, normalized to pre-treatment and control (Day 30, 0.5 mg/kg single SC injection on day 1, n=3): 1.093 | Avg LDL, normalized to pre-treatment and control (Day 43, 0.5 mg/kg single SC injection on day 1, n=3): 0.970
